# Measured values: patent publication US7598418B2, “Amide derivatives” (Institute of Medicinal Molecular Design, Inc., priority 2002, dated 2009)
# Tested on: Jurkat cells
# Experiment: Jurkat cell proliferation, MTS method: compound alone or combined with bleomycin
# Format: cell-based
# Set-up: key: ┌++┘ indicates observation of remarkable enhancement; ┌+┘ indicates moderated enhancement
# Settings: compound plus bleomycin 5 μg/ml or 10 μg/ml, 36 hours, survival rate vs DMSO control
# Experimental: By using aforementioned synthetic compounds, effects on proliferation of Jurkat cells by sole administration and inhibitory effects on cell proliferation by administration in combination with bleomycin were examined. Materials and methods are as follows. Jurkat cells obtained from Dainippon Pharmaceutical Co. Ltd. were inoculated at about 10,000 cells per well in a 96 well culture plate, and incubated in 10% bovine fetal serum (Irvine Scientific) supplemented with RPMI1640 (ICN) medium in 5% CO2 incubator at 37° C. […] 36 hours after the incubation, the number of living cells was counted by the MTS method.
# More specifically, 20 μl of CellTiter96™ AQueous One Solution (Promega) was added per one well, and after the cells were incubated for additional one hour, an absorbance at 490 nm was measured by using a microplate reader. The same culture added with DMSO as a solvent at final concentration of 0.25% was used as a control. The number of cells in the control was considered as 100% survival rate, and for each compound, survival rates by sole administration or a combined administration were calculated. […] In the table, ┌++┘ indicates observation of remarkable enhancement, ┌+┘ indicates moderated enhancement.
row,Structure (SMILES),Activity (enhancement of inhibitory effect on cell proliferation in combination with bleomycin)
1,"Cc1ccc(S(=O)(=O)Oc2cccc3c(S(=O)(=O)NC(C)c4ccccc4)cccc23)cc1 (stereo not shown) [Compound 1-26, N-(1-Phenethyl)-5-{[(4-methylphenyl)sulfonyl]oxy}naphthalene-1-sulfonamide]",++
2,"Cc1ccc(S(=O)(=O)Oc2cccc3c(S(=O)(=O)NCc4ccccc4C)cccc23)cc1 [Compound 1-6, N-(2-Methylbenzyl)-5-{[(4-methylphenyl)sulfonyl]oxy}naphthalene-1-sulfonamide]",++
3,"CC(C)(C)c1ccc(CNS(=O)(=O)c2ccc3c(N)cccc3c2)cc1 [Compound 6-2, 5-Amino-N-[4-(tert-butyl)benzyl]naphthalene-2-sulfonamide]",+
4,"Cc1ccc(S(=O)(=O)Oc2cccc3c(S(=O)(=O)NCc4ccc(C(F)(F)F)cc4)cccc23)cc1 [Compound 1-9, N-[4-(Trifluoromethyl)benzyl]-5-{[(4-methylphenyl)sulfonyl]oxy}naphthalene-1-sulfonamide]",++
5,"CC(C)(C)c1ccc(CNS(=O)(=O)c2cccc3c(O)cccc23)cc1 [Compound 2-7, N-[4-(tert-Butyl)benzyl]-5-hydroxynaphthalene-i-sulfonamide]",++
6,"Nc1cccc2c(C(=O)NCc3ccccc3)cccc12 [Compound 11-1, 5-Amino-N-benzylnaphthalene-1-carboxamide]",+
7,"Cc1ccc(S(=O)(=O)Oc2cccc3c(S(=O)(=O)NCc4ccc(N(C)C)cc4)cccc23)cc1 [Compound 1-17, N-[4-(Dimethylamino)benzyl]-5-{[(4-methylphenyl)sulfonyl]oxy}naphthalene-1-sulfonamide]",++
8,"O=S(=O)(NCc1cccc2ccccc12)c1ccc2c(O)cccc2c1 [Compound 4-8, N-(1-Naphthylmethyl)-5-hydroxynaphthalene-2-sulfonamide]",+
9,"O=S(=O)(NCCc1ccccc1)c1ccc2c(O)cccc2c1 [Compound 4-13, N-(2-Phenethyl)-5-hydroxynaphthalene-2-sulfonamide]",+
10,"COc1ccccc1CNS(=O)(=O)c1cccc2c(O)cccc12 [Compound 2-11, N-(2-Methoxylbenzyl)-5-hydroxynaphthalene-1-sulfonamide]",+
11,"O=S(=O)(NCc1ccccc1)c1ccc2c(O)cccc2c1 [Compound 4-1, N-Benzyl-5-hydroxynaphthalene-2-sulfonamide]",+
12,"Cc1ccc(S(=O)(=O)Oc2cccc3c(S(=O)(=O)NCc4ccc(C(C)(C)C)cc4)cccc23)cc1 [Compound 1-7, N-[4-(tert-Butyl)benzyl]-5-{[(4-methylphenyl)sulfonyl]oxy}naphthalene-1-sulfonamide]",++
13,"COc1cccc(CNS(=O)(=O)c2ccc3c(N)cccc3c2)c1OC [Compound 6-3, 5-Amino-N-(2,3-dimethoxybenzyl)naphthalene-2-sulfonamide]",+
14,"CC(C)(C)c1ccc(CNS(=O)(=O)c2cccc3cc(N)ccc23)cc1 [Compound 8-2, 6-Amino-N-[4-(tert-butyl)benzyl]naphthalene-1-sulfonamide]",+
15,"COc1cccc(CNS(=O)(=O)c2ccc3c(O)cccc3c2)c1OC [Compound 4-6, N-(2,3-Dimethoxybenzyl)-5-hydroxynaphthalene-2-sulfonamide]",+
16,"COc1ccccc1CNS(=O)(=O)c1cccc2c(OS(=O)(=O)c3ccc(C)cc3)cccc12 [Compound 1-11, N-(2-Methoxybenzyl)-5-{[(4-methylphenyl)sulfonyl]oxy}naphthalene-1-sulfonamide]",++
17,"Cc1ccc(S(=O)(=O)Oc2cccc3c(S(=O)(=O)NCc4ccccc4)cccc23)cc1 [Compound 1-1, N-Benzyl-5-{[(4-methylphenyl)sulfonyl]oxy}naphthalene-1-sulfonamide]",++

row,Structure (SMILES),Activity (enhancement of inhibitory effect on cell proliferation in combination with bleomycin)
1,"Cc1ccc(S(=O)(=O)Oc2cccc3c(S(=O)(=O)NCc4ccc(Cl)cc4Cl)cccc23)cc1 [Compound 1-3, N-(2,4-Dichlorobenzyl)-5-{[(4-methylphenyl)sulfonyl]oxy}naphthalene-1-sulfonamide]",++
2,"Cc1ccc(S(=O)(=O)Oc2cccc3c(S(=O)(=O)Nc4ccccc4)cccc23)cc1 [Compound 1-24, N-Phenyl-5-{[(4-methylphenyl)sulfonyl]oxy}naphthalene-1-sulfonamide]",++
3,"O=S(=O)(NCC1CCCCC1)c1cccc2c(O)cccc12 [Compound 2-23, N-Cyclohexylmethyl-5-hydroxynaphthalene-1-sulfonamide]",+
4,"Cc1ccc(S(=O)(=O)Oc2cccc3c(S(=O)(=O)NCc4cccc(N)c4)cccc23)cc1 [Compound 1-16, N-(3-Aminobenzyl)-5-{[(4-methylphenyl)sulfonyl]oxy}naphthalene-1-sulfonamide]",+
5,"Cc1ccc(S(=O)(=O)Oc2cccc3c(S(=O)(=O)NCCc4ccccc4)cccc23)cc1 [Compound 1-25, N-(2-Phenethyl)-5-{[(4-methylphenyl)sulfonyl]oxy}naphthalene-1-sulfonamide]",+
6,"COc1cccc(CNS(=O)(=O)c2cccc3c(OS(=O)(=O)c4ccc(C)cc4)cccc23)c1 [Compound 1-12, N-(3-Methoxybenzyl)-5-{[(4-methylphenyl)sulfonyl]oxy}naphthalene-1-sulfonamide]",+
7,"O=S(=O)(NCc1ccc(C(F)(F)F)cc1)c1cccc2c(O)cccc12 [Compound 2-9, N-[4-(Trifluoromethyl)benzyl]-5-hydroxynaphthalene-1-sulfonamide]",+
8,"Cc1ccc(S(=O)(=O)Oc2cccc3c(S(=O)(=O)NCC4CCCCC4)cccc23)cc1 [Compound 1-23, N-Cyclohexylmethyl-5-{[(4-methylphenyl)sulfonyl]oxy}naphthalene-1-sulfonamide]",+
9,"O=S(=O)(NCc1ccc(Cl)cc1Cl)c1cccc2c(O)cccc12 [Compound 2-3, N-(2,4-Dichlorobenzyl)-5-hydroxynaphthalene-1-sulfonamide]",++
10,"CC(=O)Oc1cccc2cc(S(=O)(=O)NCc3ccc(C)o3)ccc12 [Compound 3-9, 5-Acetyloxy-N-[(5-methylfuran-2-yl)methyl]naphthalene-2-sulfonamide]",+
11,"Cc1ccc(S(=O)(=O)Oc2cccc3c(S(=O)(=O)NCc4ccc5c(c4)OCO5)cccc23)cc1 [Compound 1-15, N-(3,4-Methylenedioxybenzyl)-5-{[(4-methylphenyl)sulfonyl]oxy}naphthalene-1-sulfonamide]",+
12,"O=S(=O)(NCCc1ccccc1)c1cccc2c(O)cccc12 [Compound 2-25, N-(2-Phenethyl)-5-hydroxynaphthalene-1-sulfonamide]",+
13,"Cc1ccc(S(=O)(=O)Oc2cccc3c(S(=O)(=O)NCc4cccc5ccccc45)cccc23)cc1 [Compound 1-19, N-(1-Naphthylmethyl)-5-{[(4-methylphenyl)sulfonyl]oxy}naphthalene-1-sulfonamide]",++
14,"O=[N+]([O-])c1cccc(CNS(=O)(=O)c2ccc3c(O)cccc3c2)c1 [Compound 4-3, N-(3-Nitrobenzyl)-5-hydroxynaphthalene-2-sulfonamide]",+
15,"CC(=O)Oc1cccc2cc(S(=O)(=O)NCc3ccccc3)ccc12 [Compound 3-1, 5-Acetyloxy-N-benzylnaphthalene-2-sulfonamide]",+
16,"Cc1ccc(S(=O)(=O)Oc2cccc3c(S(=O)(=O)N(C)Cc4ccccc4)cccc23)cc1 [Compound 1-27, N-Benzyl-N-methyl-5-{[(4-methylphenyl)sulfonyl]oxy}naphthalene-1-sulfonamide]",+
17,"COc1cccc(CNS(=O)(=O)c2cccc3c(O)cccc23)c1OC [Compound 2-13, N-(2,3-Dimethoxylbenzyl)-5-hydroxynaphthalene-1-sulfonamide]",+
